Laboratory results reported in publication PMC9741287, “Cytotoxic and Luminescent Properties of Novel Organotin Complexes with Chelating Antioxidant Ligand” (Molecules, 2022).
Where “and” joins values, the source holds several entries; their conditions need not be identical. Identical values can stand only once. Like-named read-outs stand apart in the source and are kept apart here.

What was measured:
[1] = test system: HCT116 (human colorectal carcinoma); assay: MTT-test HCT116; type: cell-based
Protocol: (§1) Since the investigated compounds are designed as theranostic and cytostatic agents, their toxic impact was evaluated as a standard MTT-test. Cytotoxicity was studied on four cell lines, i.e.,—HCT116 (human colorectal carcinoma), MCF-7 (human breast cancer), A549 (human lung adenocarcinoma), and WI-38 (human fetal lung fibroblast). Obtained results appear to be unorthodox: as it is known, the introduction of an organotin moiety tends to noticeably increase compounds’ toxicity and more lipophilic ones do it better, but in the presented data pattern turns vice versa (Table 3).
(§2) HCT-116 (colon carcinoma), MCF-7 (breast adenocarcinoma), A-549 (lung adenocarcinoma) cell lines, and WI-38 (cell line composed of fibroblasts) were derived from The European Collection of Authenticated Cell Cultures (ECACC, Salisbury, UK), cultured in DMEM medium (Gibco™, Dublin, Ireland) supplemented with 10% fetal bovine serum (Gibco™, Brasilia, Brazil). The cells were cultured in an incubator at 37 °C in a humidified 5% CO2 atmosphere and subcultured two times a week.
(§3) The toxicity of compounds was studied on cultured cell lines according to standard MTT protocol.

[2] = test system: superoxide radical anion O2−• (xanthine-xanthine oxidase system); assay: NBT-test, superoxide generated in the xanthine-xanthine oxidase system; type: biochemical; details: 0.006 mL of 5 mM compound in DMSO per 0.3 mL well; 600 s; 560 nm; negative = stimulation
Description: Xanthine oxidase is molybdenum containing enzyme responsible for purine catabolism in the human organism. It is capable of xanthine oxidation, resulting in uric acid and superoxide radical anion as a side product. The latter one is well-known ROS, and the ability to neutralize it marks the compound as a perspective antioxidant. This is followed by the interaction of O2^−• and nitro-blue tetrazolium resulting in the cycle opening (Scheme 4), which is accompanied by the color change with λmax = 560 nm and can be monitored spectrophotometrically.
The influence of compounds on superoxide radical anion О2^−• generated in the enzymatic system xanthine-xanthine oxidase was estimated as the amount of nitro-blue tetrazolium (NBT) reduced to formazan. The assay was carried out in 96-well plates. The total volume of a single well was 0.3 mL and consisted of 0.27 mL of carbonate buffer (40 mM, pH 10.0) containing EDTA (0.1 mM), 0.006 mL of xanthine (10 mM) in carbonate buffer, 0.003 mL of 0.5% bovine serum albumin in water, 0.003 mL of NBT chloride (2.5 mM) in water, and 0.006 mL of a solution of the studied compound in DMSO (5 mM). Xanthine oxidase (0.012 mL, 0.004 units) in buffer was added to the mixture at rt to start the reaction and the absorption at λmax = 560 nm was recorded for 600 s. The control experiment was performed in the presence of 0.006 mL DMSO without a compound. All experiments were performed in triplicate.
Inhibition was expressed by the Equation (2):I (%) = (ν0/ν0′) × 100%,(2) where v0 and v0′ are initial rates of the enzymatic reaction in the presence and absence (control) of the compounds under study, respectively.
The initial rate (v0 and v0′) was calculated by the Equation (3):ν0 = ΔС/Δt = ΔA/(Δt × ε) = tgα/(Δt × ε),(3)
A1 is the absorbance in the presence of the testing compound at the end of the reaction (600 s), and A0 is the absorbance of the blank solution. ΔA is the difference between A1 and A0. All experiments were performed in triplicate.

[3] = test system: WI-38 (human fetal lung fibroblast); assay: MTT-test WI-38; type: cell-based
Protocol: as §1, §2, §3

[4] = test system: A549 (human lung adenocarcinoma); assay: MTT-test A549; type: cell-based
Protocol: as §1, §2, §3

[5] = Luminescence / photophysical properties; type: physicochemical; details: for Quantum Yield, DMSO Solution 10 µM / Quantum Yield, DMSO Solution 100 µM / Quantum Yield, DMSO Solution 1000 µM / Quantum Yield, Powders: λex = 365 nm; for ε (λmax): at absorption λmax; for Quantum Yield, Powders: solid (compound 4 is an oil); for Luminosity (λmax): at λmax
Protocol: Their quantum yields reached 20%, which together with their high absorption (Table 4) makes them highly emissive even in powders.
The registration of luminescence spectra of powders and solutions in the visible range as well as the measurement of quantum yields were carried out with Horiba FluoroMax Plus, with xenon lamp as excitation source at room temperature; excitation was performed through a ligand (λex = 365 nm). The quantum yield was measured by the absolute method in the integrating sphere.

[6] = DPPH-test (radical scavenging); details: for Quantity of Reduced DPPH after 20 h: DPPH 0.2 mM + test compound 0.2 mM in EtOH, equal volumes, 517 nm
Description: 2,2-Diphenyl-1-picrylhydrazyl (DPPH)—is a stable N-centered chromophore radical with absorption peak λmax = 517 nm, while its reduced form is pale yellow. Its reduction can be monitored spectrophotometrically and is a well-known and convenient way of evaluating radical scavenging activity. […] This may be caused by the participation not of only the sterically hindered phenolic group in the process of radical scavenging, but salicylic phenolic group and probably hydrazide fragment as well. The abovementioned structural moieties participate in the coordination of tin atoms, and therefore are excluded from the mechanism of antioxidant action of complexes. […] The introduction of tin is known to lower the radical scavenging capacity of corresponding ligands and is estimated as referred previously. The only exception is complex 7, bearing two 2,6-di-tert-butylphenols pendants attached directly to the tin.
The activity of synthesized compounds as radical scavengers was estimated spectrophotometrically at λmax = 517 nm using stable radical 2,2-diphenyl-1-picrylhydrazyl (Sigma-Aldrich) according to the known procedure. The reaction mixture contained DPPH (0.75 mL, 0.2 mM) and a solution of the test compound in EtOH (0.75 mL, 0.2 mM), and was put in 1 cm glass cuvettes. The measurements were carried out for 20 h and the results were calculated using Microsoft Excel 2010. Antioxidant activity was expressed as the percentage of reduced DPPH according to the Equation (1):I (%) = ((A0 − A1)/A0) × 100(1) where A0 is the absorbance of the control 0.1 mM DPPH in EtOH, ε DPPH = 1.15·× 10^4, and A1 is the absorbance of the reaction mixture in the presence of the test compound.

[7] = test system: MCF-7 (human breast cancer); assay: MTT-test MCF-7; type: cell-based
Protocol: as §1, §2, §3

CC(C)(C)c1cc(C2=NN=Cc3ccccc3[O][Sn]([C](C)(C)C)([C](C)(C)C)[O]2)cc(C(C)(C)C)c1O [Compound 5, Bu^t2SnL]
IC50 [1]: 34.3 ± 14 µM
I (NBT-Test) [2]: 5.9 ± 1.5%
IC50 [3]: 26.3 ± 11.3 µM
IC50 [4]: 43 ± 10 µM
λmax (absorption) [5]: 412 nm
Quantum Yield, DMSO Solution 10 µM [5]: 20 ± 2%
Quantum Yield, DMSO Solution 100 µM [5]: 37 ± 1%
Quantum Yield, DMSO Solution 1000 µM [5]: 29 ± 2%
ε (λmax) [5]: 9920 M⁻¹ cm⁻¹
Quantum Yield, Powders [5]: 8 ± 1%
Luminosity (λ = 365 nm) [5]: 206,360 M^−1·cm^−1
ε (λ = 365 nm) [5]: 3080 M⁻¹ cm⁻¹
Quantity of Reduced DPPH after 20 h [6]: 26.5 ± 1.7%
IC50 [7]: 50.4 ± 12.6 µM

CC(C)(C)c1cc(C(=O)N/N=C/c2ccccc2O)cc(C(C)(C)C)c1O [Compound 1, Di-tert-butyl-4-hydroxy-N′-(2-hydroxybenzylidene)-benzohydrazine]
IC50 ([1]; Homo sapiens, HCT-116): 1.7 ± 0.4 µM
I (NBT-Test) [2]: 0.5 ± 0.1%
IC50 ([3]; Homo sapiens, WI-38): 6.6 ± 1.2 µM
IC50 ([4]; Homo sapiens, A549): 2.2 ± 0.4 µM
EC50 [6]: 163 µM
IC50 ([7]; Homo sapiens, MCF7): 4.7 ± 0.8 µM

CCC[CH2][Sn]1([CH2]CCC)[O]C(c2cc(C(C)(C)C)c(O)c(C(C)(C)C)c2)=NN=Cc2ccccc2[O]1 [Compound 4, Bu2SnL]
IC50 [1]: 10 ± 2.3 µM
I (NBT-Test) [2]: −4.6 ± 1.2%
IC50 [3]: 10.8 ± 3.5 µM
IC50 [4]: 14.5 ± 4.5 µM
λmax (absorption) [5]: 409 nm
Quantum Yield, DMSO Solution 10 µM [5]: 41 ± 3%
Quantum Yield, DMSO Solution 100 µM [5]: 67% and 66 ± 2%
Quantum Yield, DMSO Solution 1000 µM [5]: 36 ± 3%
ε (λmax) [5]: 5950 M⁻¹ cm⁻¹
Luminosity (λmax) [5]: 398,650, (409) M^−1·cm^−1
Quantum Yield, Powders [5]: 4 ± 3%
Luminosity (λ = 365 nm) [5]: 146,127 M^−1·cm^−1
ε (λ = 365 nm) [5]: 2181 M⁻¹ cm⁻¹
Quantity of Reduced DPPH after 20 h [6]: 50.5 ± 2.8%
IC50 [7]: 1.01 ± 0.4 µM

CC(C)(C)c1cc(C2=NN=Cc3ccccc3[O][Sn]([CH3])([CH3])[O]2)cc(C(C)(C)C)c1O [Compound 2, Me2SnL]
IC50 [1]: 2.4 ± 0.8 µM
I (NBT-Test) [2]: 6.3 ± 1.8%
IC50 [3]: 9.5 ± 3.1 µM
IC50 [4]: 2.2 ± 0.7 µM
λmax (absorption) [5]: 403 nm
Quantum Yield, DMSO Solution 10 µM [5]: 17 ± 3%
Quantum Yield, DMSO Solution 100 µM [5]: 56 ± 1%
Quantum Yield, DMSO Solution 1000 µM [5]: 39% and 39 ± 3%
ε (λmax) [5]: 13,070 M^−1·cm^−1
Luminosity (λmax) [5]: 771,130, (403) M^−1·cm^−1
Quantum Yield, Powders [5]: 14 ± 2%
Luminosity (λ = 365 nm) [5]: 508,403 M^−1·cm^−1
ε (λ = 365 nm) [5]: 8617 M⁻¹ cm⁻¹
Quantity of Reduced DPPH after 20 h [6]: 35.2 ± 1.9%
IC50 [7]: 5.2 ± 1 µM
